Data published in ChEMBL document CHEMBL1201862, “PubChem BioAssay data set” (2004).
The source made the active and inactive calls.

Key:
[1] = target: Prothrombin (Homo sapiens, UniProt P00734); experiment: Thrombin 1536 HTS Dose Response Confirmation. [Related pubchem assays: 1046 (Thrombin 1536 HTS; hits were confirmed in this assay)]; type: functional
[2] = tested on: Vero; experiment: Vero 76 cell viability after compound exposure – Vero 76 cells, synthesized analogs, cytotoxicity control for West Nile virus antiviral project, SAR follow-up (AID 2414); type: functional; conditions: Chlorocebus sabaeus
[3] = tested on: Vero; experiment: Vero cell viability after compound exposure – synthesized analogs, set II, cytotoxicity control for West Nile virus antiviral project, SAR follow-up (AID 2402); type: functional; conditions: Chlorocebus sabaeus
[4] = target: Melanin-concentrating hormone receptor 1 (Homo sapiens, UniProt Q99705); experiment: Fluorescence-based counterscreen for antagonists of the G-protein coupled receptor 7 (GPR7): cell-based high throughput dose response assay to identify antagonists of the melanin-concentrating hormone receptor 1 (MCHR1).; type: functional
[5] = target: Neuropeptides B/W receptor type 1 (Homo sapiens, UniProt P48145); experiment: Fluorescence-based dose response cell-based high throughput screening assay to identify antagonists of the G-protein coupled receptor 7 (GPR7). [Related pubchem assays: 1952 (Screening assay (GPR7 antagonists).), 1880 (Summary AID.)]; type: functional
[6] = tested on: Vero; experiment: inhibition of WNV-induced cytopathic effect – cell-based, CPE readout (AID 1621); type: functional; conditions: Chlorocebus sabaeus
[7] = viability loss in Vero cells – cytotoxicity control for Vif-APOBEC3G degradation inhibitor project, dose response (AID 1117358); type: functional; conditions: Vero
[8] = target: T1, Protein Tat (Human immunodeficiency virus type 1 group M subtype B (isolate HXB2)(HIV-1), UniProt P04608); type: functional;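 also: tat binding to TAR RNA read out by fluorescence polarization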
T1 sequence (P04608 whole entry): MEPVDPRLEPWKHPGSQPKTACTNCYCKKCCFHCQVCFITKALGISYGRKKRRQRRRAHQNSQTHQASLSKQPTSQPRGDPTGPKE

[9] = IC50 of Artemis nuclease activity blockers – biochemical, fluorescence intensity, dose response (AID 720701); type: functional;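 also: Artemis endonuclease enzyme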
[10] = HIV-1 Vif–A3G interaction blockers – biochemical, TR-FRET, GST-Vif 1-94, biotin-A3G peptide, dose response retest, primary screen (AID 1117319); type: functional;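 also: TR-FRET signal of purified GST-Vif binding a biotinylated A3G peptide; inhibitors lower the FRET signal by blocking Vif and A3G binding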
[11] = target: Diphosphomevalonate decarboxylase (Streptococcus pneumoniae serotype 2 (strain D39 / NCTC 7466), UniProt Q9FD53); experiment: diphosphomevalonate decarboxylase inhibitor confirmation – biochemical, cuvette format, coupled NADH fluorescence (AID 1028); type: functional
[12] = viability loss in human Jurkat cells – cell-based, luminescence, cytotoxicity control for P. falciparum gametocyte viability project, dose response (AID 1117277); type: functional;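 also: potency reflects loss of cellular ATP meaning fewer viable cells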
[13] = viability inhibitors of stage V gametocytes – luminescence, dose response (AID 1117278); type: functional, cell-based;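 also: gametocytes exposed to compound for 24 hours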
[14] = target: E3 ubiquitin-protein ligase Mdm2 (Homo sapiens, UniProt Q00987); experiment: MDM2-luc reporter signal enhancers, multi-concentration potency testing, MDM2 ubiquitin-protein ligase inhibitor program, whole-cell format, luminescence detection, 384-well microplate (AID 1394); type: functional;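 also: MDM2 E3 inhibitors raise luminescence so EC50 is for signal enhancement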
[15] = target: T2, Heat shock factor protein 1 (Mus musculus, UniProt P38532); experiment: decrease of HSF1-responsive luciferase luminescence – cell-based, NIH3T3, dose retest, confirmation (AID 2382); type: functional;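 also: NIH3T3 fibroblasts with HSF1-driven luciferase reporter stressed by proteasome inhibitor MG132; luminescence from HSF1-driven luciferase expression after 8 hours of MG132 stress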
T2 sequence (P38532 whole entry): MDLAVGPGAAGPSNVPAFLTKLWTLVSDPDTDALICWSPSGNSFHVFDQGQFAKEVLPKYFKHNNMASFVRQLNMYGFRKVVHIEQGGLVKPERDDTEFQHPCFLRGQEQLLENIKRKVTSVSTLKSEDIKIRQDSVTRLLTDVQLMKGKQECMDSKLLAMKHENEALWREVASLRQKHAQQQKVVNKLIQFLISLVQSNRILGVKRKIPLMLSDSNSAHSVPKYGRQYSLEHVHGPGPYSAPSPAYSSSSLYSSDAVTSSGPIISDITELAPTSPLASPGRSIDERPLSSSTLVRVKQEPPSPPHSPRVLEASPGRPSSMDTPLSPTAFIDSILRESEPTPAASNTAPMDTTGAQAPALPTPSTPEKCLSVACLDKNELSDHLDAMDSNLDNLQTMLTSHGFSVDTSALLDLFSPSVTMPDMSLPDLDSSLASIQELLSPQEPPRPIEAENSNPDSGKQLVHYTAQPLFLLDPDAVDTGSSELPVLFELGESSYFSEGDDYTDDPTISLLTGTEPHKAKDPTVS

[16] = target: RNA-editing ligase 1, mitochondrial (Trypanosoma brucei brucei, UniProt P86926); experiment: inhibition of trypanosome RNA editing ligase – biochemical, fluorescence, Trypanosoma brucei, dose response (AID 1117295); type: functional
[17] = target: T3, Corticotropin-releasing factor receptor 2/Corticotropin-releasing factor-binding protein (Homo sapiens, UniProt P24387+Q13324); experiment: Dose Response confirmation of uHTS hits for small molecule antagonists of the CRF-binding protein and CRF-R2 receptor complex.; type: functional; conditions: read-out: IC50_Mean
T3 sequence (Q13324 whole entry): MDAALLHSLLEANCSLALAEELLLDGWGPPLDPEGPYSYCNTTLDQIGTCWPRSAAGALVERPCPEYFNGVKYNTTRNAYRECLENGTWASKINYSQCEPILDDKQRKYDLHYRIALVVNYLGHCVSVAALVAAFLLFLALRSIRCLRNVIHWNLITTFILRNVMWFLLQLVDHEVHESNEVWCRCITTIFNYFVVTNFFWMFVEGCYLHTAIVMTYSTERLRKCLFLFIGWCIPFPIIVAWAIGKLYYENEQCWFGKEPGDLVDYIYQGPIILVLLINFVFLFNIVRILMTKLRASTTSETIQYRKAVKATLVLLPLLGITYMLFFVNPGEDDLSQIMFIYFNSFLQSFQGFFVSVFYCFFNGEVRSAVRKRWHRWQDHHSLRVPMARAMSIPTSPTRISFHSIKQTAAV
T3 sequence (P24387 whole entry): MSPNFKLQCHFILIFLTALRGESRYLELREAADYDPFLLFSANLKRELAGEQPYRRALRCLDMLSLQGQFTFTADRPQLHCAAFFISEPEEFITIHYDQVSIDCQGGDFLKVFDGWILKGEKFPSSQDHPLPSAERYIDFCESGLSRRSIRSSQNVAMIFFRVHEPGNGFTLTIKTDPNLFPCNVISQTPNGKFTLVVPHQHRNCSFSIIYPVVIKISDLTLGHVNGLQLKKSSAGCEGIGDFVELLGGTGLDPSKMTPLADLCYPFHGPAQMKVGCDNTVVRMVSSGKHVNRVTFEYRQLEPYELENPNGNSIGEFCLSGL

[18] = target: Solute carrier family 12 member 2/member 5 (Homo sapiens, UniProt P55011+Q9H2X9); experiment: KCC2 and NKCC1 inhibition by rubidium flux, cell-based, NKCC1 counter-screen (AID 1734); type: functional, HEK293
[19] = target: T3, Corticotropin-releasing factor receptor 2/Corticotropin-releasing factor-binding protein; experiment: activators of CRF receptor 2 with binding protein – uHTS hits, confirmation (AID 602473); type: functional; conditions: read-out: EC50_Mean
[20] = target: COUP transcription factor 2 (Homo sapiens, UniProt P24468); experiment: Luminescence-based cell-based high throughput dose response assay to identify inhibitors of COUP-TFII (NR2F2).; type: functional;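 also: HEK293 cells transiently cotransfected with COUP-TFII expression vector and reporter; luciferase reporter luminescence driven by COUP-TFII from the pX2-168 reporter plasmid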
[21] = HEK-293T cell viability reduction – luminescence, B-cell screen hits, cytotoxicity control for BCR NF-kB inhibitor project, dose response (AID 489021); type: functional, cell-based;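 also: HEK-293T cells carrying an NF-kB luciferase reporter; cells exposed to compound for about 14 hours before viability readout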
[22] = fluconazole-exposed Candida albicans growth modulators – fluorescence, retest, confirmation (AID 2467); type: functional, cell-based
[23] = tested on: INS1; experiment: INS-1E survival protection against cytokine death – cell-based, luminescence, retest, dose response (AID 449756); type: functional; conditions: Rattus norvegicus;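 also: cell death triggered by IL-1 beta plus TNF-alpha plus IFN-gamma mixture; protective hits raise ATP signal compared with cytokine alone wells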
[24] = NIH-3T3 fibroblast cytotoxicity, dose response, cytotoxicity control, cell-based, fluorescence, Alamar Blue, secondary assay (AID 2327); type: functional;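 also: NIH-3T3 mouse fibroblasts cultured with fluconazole at 8 µg/mL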
[25] = loss of viability in HepG2 cells – cell-based, CellTiter-Glo, cherry-picked, cytotoxicity control for Shn3 inhibitor project, dose response (AID 624134); type: functional
[26] = target: Galanin receptor type 2 (Homo sapiens, UniProt O43603); experiment: Dose Response cell-based high-throughput screening assay to identify antagonists of galanin receptor 2 (GALR2). [Related pubchem assays: 828, 866 ]; type: functional
[27] = non-specific 3'UTR reporter inhibition in Clone20-Shn3RL – cell-based, Renilla luciferase, cherry-picked, counter-screen for Shn3 inhibitor project, dose response (AID 624133); type: functional
[28] = reduction of Shn3 3'UTR-driven luciferase in osteoblasts – cell-based, Clone20 osteoblasts, firefly luciferase, cherry-picked, dose response (AID 624132); type: functional;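 also: firefly luciferase luminescence from reporter carrying the Shn3 3'UTR in osteoblasts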
[29] = L6 myocyte viability loss – cell-based, plate reader, cherry-pick, cytotoxicity control, dose response (AID 651896); type: functional
[30] = Inhibition of T. cruzi Tulahuen strain amastigotes in L-6 muscle cells Measured in Cell-Based and Microorganism Combination System Using Plate Reader - 2138-03_Inhibitor_Dose_CherryPick_Activity.; type: functional; conditions: Rattus norvegicus, L6
[31] = intracellular Trypanosoma cruzi inhibitors in host cells – cell-based, plate reader, cherry-pick samples, set 3, dose response (AID 651818); type: functional;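 also: compounds incubated with infected cells for about four days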
[32] = anti-trypanosomal activity in BESM host cells – imaging, CA-I/72 strain, bovine embryo skeletal muscle, dry powder, dose response (AID 651885); type: functional, cell-based
[33] = antileishmanial activity on axenic amastigotes – plate reader, cherry pick, dose response (AID 651891); type: functional, cell-based; conditions: Leishmania donovani
[34] = mouse fibroblast viability loss – cell-based, cherry-pick samples, set 2, cytotoxicity control for T. cruzi growth inhibitor project, dose response (AID 651817); type: functional; conditions: NIH3T3
[35] = Inhibition of Plasmodium falciparum NF54 Measured in Cell-Based System Using Plate Reader - 2138-11_Inhibitor_Dose_CherryPick_Activity.; type: functional
[36] = African trypanosome bloodstream form growth inhibition – STIB900 strain, plate reader, cherry pick, dose response (AID 651893); type: functional, cell-based, Trypanosoma brucei rhodesiense; conditions: Trypanosoma brucei
[37] = Trypanosoma cruzi replication inhibitors in host cells – cell-based, plate reader, dry powder samples, dose response (AID 651845); type: functional
[38] = T. cruzi growth inhibition in host cells, dose response, cell-based, plate reader, dry powder, set 2 (AID 652275); type: functional
[39] = target: Estrogen receptor beta (Homo sapiens, UniProt Q92731);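 also: recombinant ER-beta bound to coactivator SRC1 peptide in presence of estradiol agonist; inhibitors block coactivator peptide binding and lower the FRET signal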
[40] = BioA aminotransferase inhibition, coupled fluorescent readout – biochemical, coupled fluorescence displacement, 20-point, dry powder, dose response (AID 743357); type: functional
[41] = toxicity to human hepatoma HepG2 cells – cell-based, cherry-picked samples, cytotoxicity control, dose response (AID 1159577); type: functional
[42] = P. falciparum Dd2 growth inhibitors, dose response, SYBR Green, cherry-picked samples (AID 1159567); type: functional, cell-based
[43] = target: G-protein coupled receptor 183 (Homo sapiens, UniProt P32249); experiment: SAR confirmation of small molecule antagonists of the EBI2 receptor via a luminescent beta-arrestin assa.; type: functional
[44] = target: Cytochrome P450 2C19 (Homo sapiens, UniProt P33261); experiment: qHTS Assay for Inhibitors and Substrates of Cytochrome P450 2C19. [Related pubchem assays: 410 ]; type: ADME; conditions: read-out: Potency
Chain of Cytochrome P450 2C19 (P33261 whole entry): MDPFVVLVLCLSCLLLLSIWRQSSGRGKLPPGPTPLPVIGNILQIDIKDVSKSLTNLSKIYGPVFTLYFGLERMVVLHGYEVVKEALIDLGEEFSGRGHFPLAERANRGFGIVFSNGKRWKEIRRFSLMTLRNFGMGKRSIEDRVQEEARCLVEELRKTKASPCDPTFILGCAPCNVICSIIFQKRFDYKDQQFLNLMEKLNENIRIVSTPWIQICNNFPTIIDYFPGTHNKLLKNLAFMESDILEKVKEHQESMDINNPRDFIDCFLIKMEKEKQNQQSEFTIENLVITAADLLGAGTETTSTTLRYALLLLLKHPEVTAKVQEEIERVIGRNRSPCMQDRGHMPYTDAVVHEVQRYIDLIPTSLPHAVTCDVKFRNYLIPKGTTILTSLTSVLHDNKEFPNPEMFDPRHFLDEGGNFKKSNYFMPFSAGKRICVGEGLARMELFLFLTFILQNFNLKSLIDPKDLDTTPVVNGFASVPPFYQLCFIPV

Chain of Galanin receptor type 2 (O43603 whole entry): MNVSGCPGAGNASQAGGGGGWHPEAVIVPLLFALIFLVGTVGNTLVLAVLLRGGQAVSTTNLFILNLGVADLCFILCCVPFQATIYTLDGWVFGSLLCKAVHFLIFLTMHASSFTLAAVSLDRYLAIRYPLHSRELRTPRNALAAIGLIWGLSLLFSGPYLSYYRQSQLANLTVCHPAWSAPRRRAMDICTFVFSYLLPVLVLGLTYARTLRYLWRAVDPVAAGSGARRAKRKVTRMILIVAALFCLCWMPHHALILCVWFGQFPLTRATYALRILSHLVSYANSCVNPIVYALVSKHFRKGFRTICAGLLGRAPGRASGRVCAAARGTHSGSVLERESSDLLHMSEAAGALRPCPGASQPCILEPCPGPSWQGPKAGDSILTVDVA
Chain of RNA-editing ligase 1, mitochondrial (P86926 whole entry): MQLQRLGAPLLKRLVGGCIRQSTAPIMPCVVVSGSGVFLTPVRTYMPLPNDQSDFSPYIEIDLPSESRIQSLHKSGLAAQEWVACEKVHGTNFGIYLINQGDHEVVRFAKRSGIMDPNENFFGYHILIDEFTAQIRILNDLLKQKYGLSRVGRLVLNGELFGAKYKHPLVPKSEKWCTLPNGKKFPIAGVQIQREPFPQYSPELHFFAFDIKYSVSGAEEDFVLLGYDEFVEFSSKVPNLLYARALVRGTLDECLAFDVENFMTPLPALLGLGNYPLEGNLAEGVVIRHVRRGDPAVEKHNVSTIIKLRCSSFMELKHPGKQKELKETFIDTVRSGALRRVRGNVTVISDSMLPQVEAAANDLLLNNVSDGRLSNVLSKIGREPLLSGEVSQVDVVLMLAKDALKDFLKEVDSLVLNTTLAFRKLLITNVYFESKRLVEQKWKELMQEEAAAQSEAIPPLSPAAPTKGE
Chain of COUP transcription factor 2 (P24468 whole entry): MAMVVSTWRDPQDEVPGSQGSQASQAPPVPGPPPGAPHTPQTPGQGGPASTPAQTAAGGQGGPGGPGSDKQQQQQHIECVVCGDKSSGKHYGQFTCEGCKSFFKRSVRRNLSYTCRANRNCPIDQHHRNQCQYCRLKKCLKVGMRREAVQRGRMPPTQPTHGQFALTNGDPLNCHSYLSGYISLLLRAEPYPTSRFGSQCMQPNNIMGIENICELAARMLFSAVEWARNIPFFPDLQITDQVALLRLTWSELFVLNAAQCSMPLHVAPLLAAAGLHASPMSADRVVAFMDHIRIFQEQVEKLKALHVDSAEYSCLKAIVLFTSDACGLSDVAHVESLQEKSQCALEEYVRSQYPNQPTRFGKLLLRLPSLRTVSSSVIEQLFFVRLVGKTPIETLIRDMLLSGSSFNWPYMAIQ
Chain of Diphosphomevalonate decarboxylase (Q9FD53 whole entry): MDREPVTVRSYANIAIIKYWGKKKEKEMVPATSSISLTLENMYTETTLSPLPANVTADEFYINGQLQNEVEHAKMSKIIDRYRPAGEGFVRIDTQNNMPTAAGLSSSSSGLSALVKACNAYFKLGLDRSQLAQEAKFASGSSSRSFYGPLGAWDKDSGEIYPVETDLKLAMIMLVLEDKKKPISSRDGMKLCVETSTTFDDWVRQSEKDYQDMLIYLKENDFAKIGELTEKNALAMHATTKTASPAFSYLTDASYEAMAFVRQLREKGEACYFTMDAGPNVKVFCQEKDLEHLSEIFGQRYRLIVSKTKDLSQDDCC
Chain of Neuropeptides B/W receptor type 1 (P48145 whole entry): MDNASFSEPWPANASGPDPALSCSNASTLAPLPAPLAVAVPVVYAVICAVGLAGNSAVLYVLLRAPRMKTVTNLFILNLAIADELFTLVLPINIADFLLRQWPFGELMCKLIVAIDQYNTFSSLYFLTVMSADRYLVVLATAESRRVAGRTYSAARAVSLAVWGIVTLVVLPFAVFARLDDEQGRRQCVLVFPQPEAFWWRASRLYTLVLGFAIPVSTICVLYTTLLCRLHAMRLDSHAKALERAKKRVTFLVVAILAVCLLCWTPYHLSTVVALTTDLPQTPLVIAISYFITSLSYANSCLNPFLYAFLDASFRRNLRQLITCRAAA
Chain of G-protein coupled receptor 183 (P32249 whole entry): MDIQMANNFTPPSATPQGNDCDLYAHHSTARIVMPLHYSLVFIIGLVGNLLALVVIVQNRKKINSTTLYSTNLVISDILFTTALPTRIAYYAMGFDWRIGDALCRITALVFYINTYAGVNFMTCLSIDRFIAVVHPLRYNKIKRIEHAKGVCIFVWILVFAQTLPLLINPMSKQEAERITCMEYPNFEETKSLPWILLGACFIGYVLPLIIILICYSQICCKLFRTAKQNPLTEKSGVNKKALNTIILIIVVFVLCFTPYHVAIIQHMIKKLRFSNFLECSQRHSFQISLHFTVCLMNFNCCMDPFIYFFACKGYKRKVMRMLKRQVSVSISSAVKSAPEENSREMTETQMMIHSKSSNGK
Chain of E3 ubiquitin-protein ligase Mdm2 (Q00987 whole entry): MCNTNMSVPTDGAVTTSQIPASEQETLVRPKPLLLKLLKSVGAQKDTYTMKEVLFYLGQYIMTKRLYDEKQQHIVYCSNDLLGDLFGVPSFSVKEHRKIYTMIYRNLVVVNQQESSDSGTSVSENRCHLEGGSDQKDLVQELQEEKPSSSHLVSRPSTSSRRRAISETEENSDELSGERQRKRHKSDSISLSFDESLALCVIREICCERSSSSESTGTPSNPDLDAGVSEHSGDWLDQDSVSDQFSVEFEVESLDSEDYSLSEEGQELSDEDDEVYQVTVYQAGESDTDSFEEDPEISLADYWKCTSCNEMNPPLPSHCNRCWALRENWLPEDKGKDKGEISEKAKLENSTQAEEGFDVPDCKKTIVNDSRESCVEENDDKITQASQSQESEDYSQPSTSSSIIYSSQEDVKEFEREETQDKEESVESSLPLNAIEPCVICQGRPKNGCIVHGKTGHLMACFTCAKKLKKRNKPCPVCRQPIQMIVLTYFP
Chain of Estrogen receptor beta (Q92731 whole entry): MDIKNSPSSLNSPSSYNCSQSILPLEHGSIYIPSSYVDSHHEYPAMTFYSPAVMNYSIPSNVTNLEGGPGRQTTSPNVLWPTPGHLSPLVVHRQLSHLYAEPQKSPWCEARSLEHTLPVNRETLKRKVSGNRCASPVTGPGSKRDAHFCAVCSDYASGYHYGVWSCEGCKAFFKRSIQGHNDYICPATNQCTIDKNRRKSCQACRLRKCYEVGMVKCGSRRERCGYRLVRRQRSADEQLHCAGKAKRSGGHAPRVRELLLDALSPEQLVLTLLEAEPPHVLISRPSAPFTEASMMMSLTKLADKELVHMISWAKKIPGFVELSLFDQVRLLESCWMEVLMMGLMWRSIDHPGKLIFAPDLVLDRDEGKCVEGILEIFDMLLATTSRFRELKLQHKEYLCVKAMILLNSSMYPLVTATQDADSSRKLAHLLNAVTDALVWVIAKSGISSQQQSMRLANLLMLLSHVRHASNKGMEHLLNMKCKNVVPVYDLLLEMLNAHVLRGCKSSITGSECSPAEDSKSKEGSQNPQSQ
Chain of Melanin-concentrating hormone receptor 1 (Q99705 whole entry): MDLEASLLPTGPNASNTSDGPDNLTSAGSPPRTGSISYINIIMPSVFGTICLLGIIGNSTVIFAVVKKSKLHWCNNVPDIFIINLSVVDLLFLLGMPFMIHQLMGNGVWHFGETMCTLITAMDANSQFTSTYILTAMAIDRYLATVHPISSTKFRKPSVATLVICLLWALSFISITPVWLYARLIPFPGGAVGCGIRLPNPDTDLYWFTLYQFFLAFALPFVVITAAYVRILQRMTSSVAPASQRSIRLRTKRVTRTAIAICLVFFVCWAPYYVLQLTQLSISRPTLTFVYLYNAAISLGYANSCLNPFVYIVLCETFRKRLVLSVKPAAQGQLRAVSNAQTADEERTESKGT

COc1cccc(-n2c(SCC(=O)Nc3ccc4c(c3)CCC4)nc3ccccc3c2=O)c1
IC50 [1]: > 50 µM (not active)
CC50 [2]: > 66.6 µM (active)
CC50 [3]: > 100 µM (active)

OC1(c2ccc(F)cc2)CC2CCC(C1)N2Cc1nnnn1C1CCCCC1 (centres undefined)
IC50 [4]: 24 µM (not active)
IC50 [5]: 28.3 µM (not active)

Cc1ccc(-c2cc(C(=O)NCCCN3CCCC3)c3ccccc3n2)cc1C
IC50 [6]: 21.8 µM (active)

COc1ccc(C2CC(c3ccccc3)n3nc(NC(=O)c4cccs4)nc3N2)cc1 (centres undefined)
CC50 [7]: > 40 µM (active)
IC50 [8]: > 100 µM (active)
IC50 [9]: 6.96 µM (active)
IC50 [10]: > 100 µM (active)

O=C(c1cccc(-n2sc3ccccc3c2=O)c1)N1CCCC1
IC50 [11]: 16.5 µM (active)

Cc1cc(S(=O)(=O)N(Cc2ccccc2F)C2CC2)ccc1-n1cnnn1
IC50 [12]: > 83.2 µM (inactive)
IC50 [13]: > 109 µM (inactive)

CCOC(=O)/C=C/C(=O)Nc1ccccc1-c1ccccc1NC(=O)/C=C/C(=O)OCC
EC50 [14]: 4.34 µM (active)
EC50 [15]: 14.4 µM (active)

Cc1c(P(=S)(c2ccccc2)c2ccccc2)n2ccccc2[n+]1C/C=C/c1ccccc1
IC50 [16]: > 96.6 µM (inactive)

O=C(NCCOc1ccccc1F)c1ccccc1SCc1ccc(F)cc1
IC50 [17]: > 47.1 µM (inactive)
IC50 [18]: 2.2 µM (active)
EC50 [19]: > 53 µM (inactive)

Cc1ccc(S(=O)(=O)CC2CSc3nc4ccccc4n32)cc1 (centres undefined)
IC50 [20]: 4.21 µM (active)
IC50 [21]: > 80 µM (inactive)
EC50 [22]: 1.15 µM (active)
AC50 [23]: 3.55 µM (active)
EC50 [24]: > 160 µM (inactive)
AC50 [25]: 0.592 µM (active)
IC50 [26]: > 42 µM (not active)
AC50 [27]: 24.4 µM (active)
AC50 [28]: 0.347 µM (active)

C[C@H]1CN([C@@H](C)CO)C(=O)c2cccc(NC(=O)c3ccncc3)c2O[C@@H]1CN(C)Cc1ccc(C(F)(F)F)cc1
IC50 [29]: 45.5 µM (inactive)
IC50 [30]: 2.95 µM (inactive)
AC50 [31]: 0.304 µM (active)
IC50 [32]: 0.00601 µM (active)
IC50 [33]: 16.3 µM (inactive)
AC50 [34]: 39 µM (inactive)
IC50 [35]: 2.95 µM (inactive)
IC50 [36]: 3.49 µM (inactive)
AC50 [37]: 0.0127 µM (active)
AC50 [38]: 0.0127 µM (active)

CCCCCCN/C=C1\C(=O)CC(C)(C)C(C(=O)OC)C1=O (centres undefined)
IC50 [39]: > 50 µM (not active)

CN1c2ccc(-c3cccc(F)c3)cc2[C@H]2[C@H](CCN2C(=O)CCCCCCC(=O)O)[C@H]1CO
AC50 [40]: 16.7 µM (active)

COc1ccccc1NC(=O)N1CCCCN2[C@@H](CO)[C@@H](c3ccc(C#CC4CC4)cc3)[C@@H]2C1
AC50 [41]: 9.69 µM (active)
AC50 [42]: 1.03 µM (active)

Cc1cc(CN2CCN(C(=O)/C=C/c3ccc(Br)cc3)CC2)ccc1F
IC50 [43]: 0.0015 µM (active)

CCCn1c(=O)[nH]c2nc(-c3ccc(S(=O)(=O)O)cc3)[nH]c2c1=O
AC50 [44]: 7.94 µM (inconclusive)
